Conditions: 333.15 K, Liquid, Vibrating tube method

CCCCCCCCCC [decane]
Conditions	mass density [kg/m3]
10425 kPa	708.9
10455 kPa	709
10482 kPa	709
10506 kPa	709.1
10526 kPa	709
10553 kPa	709.1
10580 kPa	709
10603 kPa	709.1
10630 kPa	709.2
10657 kPa	709
10677 kPa	709.3
10704 kPa	709.2
10743 kPa	709.3
10772 kPa	709.2
10799 kPa	709.4
10828 kPa	709.3
10856 kPa	709.3
10884 kPa	709.3
10917 kPa	709.4
10950 kPa	709.4
10976 kPa	709.4
11009 kPa	709.5
11035 kPa	709.6
11073 kPa	709.6
11102 kPa	709.7
11132 kPa	709.6
11162 kPa	709.7
11188 kPa	709.5
11219 kPa	709.7
11250 kPa	709.7
11277 kPa	709.8
11304 kPa	709.8
11330 kPa	709.7
11357 kPa	709.7
11398 kPa	709.8
11428 kPa	709.8
11460 kPa	709.8
11492 kPa	709.9
11533 kPa	709.9
11566 kPa	710
11596 kPa	710
11635 kPa	710
11662 kPa	710
11697 kPa	710.1
11733 kPa	710.1
11760 kPa	710.1
11796 kPa	710.2
11827 kPa	710.2
11859 kPa	710.2
11895 kPa	710.2
11932 kPa	710.4
11974 kPa	710.4
11998 kPa	710.3
12044 kPa	710.4
12087 kPa	710.5
12115 kPa	710.6
12144 kPa	710.4
12187 kPa	710.4
12857 kPa	711
12881 kPa	711.2
12919 kPa	711.2
12952 kPa	711.1
12983 kPa	711.3
13020 kPa	711.3
13053 kPa	711.2
13085 kPa	711.3
13153 kPa	711.4
13172 kPa	711.5
13195 kPa	711.4
13213 kPa	711.4
13239 kPa	711.4
13261 kPa	711.4
13279 kPa	711.4
13300 kPa	711.5
13315 kPa	711.4
13337 kPa	711.4
13353 kPa	711.6
13598 kPa	711.7
13618 kPa	711.8
13633 kPa	711.7
13652 kPa	711.8
13667 kPa	711.7
13682 kPa	711.8
13695 kPa	711.7
13715 kPa	711.7
13728 kPa	711.9
13740 kPa	711.9
13756 kPa	711.8
13775 kPa	711.9
13790 kPa	711.9
13804 kPa	712
13817 kPa	711.9
13834 kPa	712
13854 kPa	712
13867 kPa	711.9
13887 kPa	712
13913 kPa	712.1
13929 kPa	712.1
13951 kPa	712
13965 kPa	712.1
13981 kPa	712.1
13994 kPa	712
14010 kPa	712.1
14027 kPa	712.1
14048 kPa	712.3
14066 kPa	712.2
14089 kPa	712.2
14106 kPa	712.1
14128 kPa	712.2
14140 kPa	712.1
14154 kPa	712.2
14172 kPa	712.3
14186 kPa	712.3
14205 kPa	712.3
14217 kPa	712.3
14240 kPa	712.4
14902 kPa	712.8
14923 kPa	712.9
14943 kPa	713
14961 kPa	713.1
15005 kPa	712.9
15028 kPa	713
15046 kPa	712.9
15070 kPa	713
15086 kPa	713
15104 kPa	712.9
15126 kPa	713
15147 kPa	713
15166 kPa	713
15205 kPa	713.2
15267 kPa	713.2
15394 kPa	713.3
15411 kPa	713.3
15435 kPa	713.4
15452 kPa	713.4
15479 kPa	713.3
15499 kPa	713.4
15536 kPa	713.4
15558 kPa	713.4
15603 kPa	713.4
15623 kPa	713.5
15641 kPa	713.5
15666 kPa	713.6
15680 kPa	713.5
15703 kPa	713.5
15721 kPa	713.6
15741 kPa	713.6
15761 kPa	713.5
15784 kPa	713.6
15804 kPa	713.6
15827 kPa	713.6
15859 kPa	713.6
15877 kPa	713.7
15898 kPa	713.6
15919 kPa	713.8
15945 kPa	713.8
15972 kPa	713.7
15992 kPa	713.8
16013 kPa	713.7
16043 kPa	713.8
16061 kPa	713.9
16084 kPa	713.9
16108 kPa	713.9
16129 kPa	713.9
16147 kPa	713.9
16163 kPa	714.1
16188 kPa	714
16212 kPa	713.9
16236 kPa	714
16258 kPa	714.1
16288 kPa	714.1
16313 kPa	714
16336 kPa	714
16354 kPa	714
16383 kPa	714.1
16417 kPa	714
16436 kPa	714.1
16455 kPa	714.1
16484 kPa	714.1
16506 kPa	714.2
16535 kPa	714.2
16557 kPa	714.2
16580 kPa	714.2
16599 kPa	714.4
16628 kPa	714.2
16648 kPa	714.2
16681 kPa	714.3
16700 kPa	714.4
16719 kPa	714.3
16749 kPa	714.4
16769 kPa	714.4
16806 kPa	714.4
16832 kPa	714.3
16858 kPa	714.5
16882 kPa	714.4
16913 kPa	714.4
16933 kPa	714.6
16963 kPa	714.6
16983 kPa	714.5
17007 kPa	714.6
17030 kPa	714.6
17054 kPa	714.6
17071 kPa	714.7
17105 kPa	714.6
17136 kPa	714.7
17168 kPa	714.7
17193 kPa	714.8
17217 kPa	714.8
17252 kPa	714.9
17276 kPa	714.8
17301 kPa	714.8
17329 kPa	714.9
17357 kPa	714.8
17382 kPa	714.9
17407 kPa	715
17429 kPa	714.9
17458 kPa	715
17484 kPa	715
17509 kPa	714.9
17542 kPa	715.1
17564 kPa	715
17593 kPa	715.1
17626 kPa	715.1
17656 kPa	715.1
17689 kPa	715.2
17708 kPa	715.2
17727 kPa	715.2
17754 kPa	715.3
17777 kPa	715.2
17799 kPa	715.3
17827 kPa	715.3
17857 kPa	715.2
17891 kPa	715.4
17925 kPa	715.4
17948 kPa	715.3
17975 kPa	715.4
18002 kPa	715.5
18025 kPa	715.4
18053 kPa	715.5
18089 kPa	715.5
18117 kPa	715.5
18145 kPa	715.5
18164 kPa	715.6
18188 kPa	715.6
18223 kPa	715.6
18263 kPa	715.6
18286 kPa	715.6
18322 kPa	715.8
18354 kPa	715.7
18382 kPa	715.7
18419 kPa	715.7
18443 kPa	715.8
18476 kPa	715.8
18500 kPa	715.7
18540 kPa	715.9
18566 kPa	716
18594 kPa	716
18623 kPa	716
18664 kPa	716
18744 kPa	716
18765 kPa	716
18791 kPa	716.1
18859 kPa	716.1
18889 kPa	716.1
18927 kPa	716.2
18953 kPa	716.2
18982 kPa	716.3
19017 kPa	716.2
19048 kPa	716.3
19083 kPa	716.3
19113 kPa	716.3
19140 kPa	716.3
19180 kPa	716.3
19216 kPa	716.4
